Results published in paper PMC12631982, “Expected and Unexpected “Guests” at the Active Site of Human Orotidine 5′-Monophosphate Decarboxylase” (Biochemistry, 2025).
Values joined by “and” are separate entries in the source; they are usually repeats but may differ in a detail not shown here. Equal values may be shown once. “Also recorded” adds a separate entry of the source. Read-outs that look alike come from different tables or passages of the source. One block for each molecule: values may come before it.

Key:
human OMPDC [1] = target: T1, human OMPDC (Homo sapiens, UniProt P11172); experiment: X-ray crystallography, soaking / cocrystallization of ligands; settings: wild-type, in crystallo
T1 construct: Overexpression of human OMPDC in Escherichia coli; made in house; host or cells: Escherichia coli
Description: OMPDC crystals were grown for at least 3 days at 20 °C using the hanging drop diffusion method with Crystalgen SuperClear Plates (Jena Bioscience) as previously described. , The crystals were gradually transferred to increasing concentrations of cryo-solution (100 mM Tris/HCl pH 8.0, 2 M (NH4)2SO4, 10 mM glutathione pH 8.0, 0.25–1 M L-proline). After the crystals were adjusted to 1 M L-proline cryo-solution, various ligands were used for soaking experiments. […] The crystals were flash-cooled in liquid nitrogen and stored at these temperatures until the diffraction experiments were conducted.
OMPDC was also cocrystallized with XMP, UMP, and GMP. For this, a final protein concentration of 4.5 mg/mL and 25 mM ligand were used in 20 mM HEPES/NaOH, pH 7.4. The solution was mixed in a 1 + 1 ratio with the reservoir solution. Plates were stored at 20 °C, and crystals grew overnight. After 1 week, crystals were transferred to cryo-solution supplemented with 25 mM XMP/UMP/GMP. The cocrystallized crystals were flash-cooled in liquid nitrogen and stored until use.
The structures of OMPDC with the different ligands were determined by processing the diffraction data with the XDS program suite. […]

human OMPDC [2] = target: T1, human OMPDC; experiment: ITC-based steady-state kinetics / activity assay of OMPDC; assay type: biochemical; settings: wild-type
Description: (§1) Steady-state kinetics of OMPDC conversion and thermodynamics of ligand binding were conducted using a PEAK-ITC instrument (Malvern Panalytical) in 20 mM HEPES/NaOH, pH 7.4, at 25 °C. The substrate OMP trisodium salt and the ligands UMP, GMP, XMP, and TMP were purchased from Sigma-Aldrich (purity >99%).
(§2) For steady-state kinetic analysis, 20 μM OMPDC and 1 mM OMP were used at a cell temperature of 25 °C. The reference power was set to 8 μcal/s, the stirring power to 750 rpm, and two injections of 10 μL each were performed. For competitive inhibition studies, the substrate concentration remained the same while the ligand concentration was varied. The experiments are summarized below:
OMPDC with OMP and 5-methyl OMP: 70/100 μM OMPDC, 1 mM OMP, 5-methyl OMP (1 mM), buffer (HEPES 0.02 M, pH 7.4), reference power ITC 8 μcal/s, stirring speed 750 rpm, cell temperature 25 °C, 2 injections of 10 μL each.
OMPDC with OMP: 20 μM OMPDC, 1 mM OMP, buffer (HEPES 0.02 M, pH 7.4), reference power ITC 8 μcal/s, stirring speed 750 rpm, cell temperature 25 °C, 2 injections of 10 μL each.
The data sets were evaluated via Microsoft Excel, and the decarboxylation rates were fitted in OriginPro 2020 according to the Hill equation.

OMPDC Thr321Asn [3] = target: T2, OMPDC Thr321Asn (Homo sapiens, UniProt P11172, T321N); experiment: Kinetic ITC with OMPDC variant Thr321Asn; assay type: biochemical
T2 construct: OMPDC Thr321Asn was generated via site-directed mutagenesis; made in house
Description: as §2, with “varied.” for “varied. The experiments are summarized below:”

human OMPDC [4] = target: T1, human OMPDC; experiment: Thermodynamic ITC ligand binding to human OMPDC wild-type; settings: for binding detected by thermodynamic ITC: 25 °C; for ΔH (first binding phase, K D1) / ΔH (second binding phase, K D2): Sedphat analysis
Description: as §1
Isothermal titration calorimetry (ITC) is used to determine the dissociation constant (K D) of a protein–ligand interaction by measuring the heat released or absorbed during binding. In practice, the ligand is sequentially titrated into a solution containing the protein in the reaction cell. As the binding sites become saturated over time, no additional heat changes are detected. The resulting thermogram is then converted into a binding isotherm, which can be used to calculate all relevant thermodynamic parameters. Thereby, the (K D) follows the general reaction, where the enzyme (E), by addition of a ligand (L), forms an enzyme-ligand complex (EL) E+L↔KaEL
The following parameters for the binding experiments were used:
OMPDC with UMP: 195 μM OMPDC, 2.08 mM UMP, buffer (HEPES 0.02 M, pH 7.4), reference power ITC 8 μcal/s, stirring speed 750 rpm, cell temperature 25 °C, one injection of 0.4 μL and 18 injections of 2 μL UMP, 120 s spacing.*
OMPDC with 5-methyl OMP: 195 μM OMPDC, 4.61 mM 5-methyl OMP, buffer (HEPES 0.02 M, pH 7.4), reference power ITC 10 μcal/s, stirring speed 750 rpm, cell temperature 25 °C, 1 injection of 0.4 μL and 18 injections of 2 μL 5-methyl OMP, 120 s spacing.*
OMPDC with dTMP: 186 μM OMPDC, 5 mM dTMP, buffer (HEPES 0.02 M, pH 7.4), reference power ITC 8 μcal/s, stirring speed 750 rpm, cell temperature 25 °C, 1 injection of 0.4 μL and 18 injections of 2 μL dTMP, 120 s spacing.
OMPDC with XMP: 194 μM OMPDC, 1.5 mM XMP, buffer (HEPES 0.02 M, pH 7.4), reference power ITC 8 μcal/s, stirring speed 750 rpm, cell temperature 25 °C, 1 injection of 0.4 μL and 18 injections of 2 μL XMP 120 s spacing.*
OMPDC with YMP: 200 μM OMPDC, 2.03 mM YMP, buffer (HEPES 0.02 M, pH 7.4), reference power ITC 8 μcal/s, stirring speed 750 rpm, cell temperature 25 °C, 1 injection of 0.4 μL and 18 injections of 2 μL YMP, 120 s spacing.
OMPDC with CMP: 200 μM OMPDC, 1.80 mM CMP, buffer (HEPES 0.02 M, pH 7.4), reference power ITC 10 μcal/s, stirring speed 750 rpm, cell temperature 25 °C, 1 injection of 0.4 μL and 18 injections of 2 μL CMP, 120 s spacing.*
OMPDC with 2′-deoxy UMP: 211 μM OMPDC, 9.04 mM 2′-deoxy UMP, buffer (HEPES 0.02 M, pH 7.4), reference power ITC 10 μcal/s, stirring speed 750 rpm, cell temperature 25 °C, 1 injection of 0.4 μL and 18 injections of 2 μL 2′-deoxy UMP, 120 s spacing.
OMPDC with GMP: 184 μM OMPDC, 10 mM GMP, buffer (HEPES 0.02 M, pH 7.4), reference power ITC 8 μcal/s, stirring speed 750 rpm, cell temperature 25 °C, 1 injection of 0.4 μL and 18 injections of 2 μL GMP, 120 s spacing.
(§3) The raw files were analyzed using the software provided by the instrument manufacturer. Marked data sets (*) were integrated using NitPic version 1.2.7 and fitted with Sedphat version 14.0. Final graphs were created with OriginPro 2020.

OMPDC Thr321Asn [5] = target: T2, OMPDC Thr321Asn; experiment: Thermodynamic ITC ligand binding to OMPDC variant Thr321Asn
Description: as §1
OMPDC T321N′ with dTMP: 211 μM OMPDC T321N′, 2 mM dTMP, buffer (HEPES 0.02 M, pH 7.4), reference power ITC 10 μcal/s, stirring speed 750 rpm, cell temperature 25 °C, 1 injection of 0.4 μL and 18 injections of 2 μL dTMP, 120 s spacing.
as §3

[6] = ITC at 25 °C, 20 mM HEPES pH 7.4, wild-type, single dissociation constant, read-out: K D
[7] = ITC at 25 °C, wild-type, first of two dissociation constants (Sedphat analysis), read-out: K D1
[8] = ITC at 25 °C, wild-type, second of two dissociation constants (Sedphat analysis), read-out: K D2

ligand bound in crystal structure (human OMPDC [1]): no ligand was bound to the active site
Structure (SMILES): Nc1nc2c(ncn2[C@@H]2O[C@H](COP(=O)(O)O)[C@@H](O)[C@H]2O)c(=O)[nH]1 [GMP, guanosine-5′-monophosphate]
binding detected by thermodynamic ITC (human OMPDC [4]; wild-type): No binding could be detected; also recorded: no measurable binding heat was detected; also recorded: did not bind at all

n (stoichiometry) (human OMPDC [4]; ITC at 25 °C, wild-type): 0.98 ± 0.01
ΔH (first binding phase, K D1) (human OMPDC [4]; ITC at 25 °C, wild-type): –1.03 ± 0.06 kcal/mol
ΔH (second binding phase, K D2) (human OMPDC [4]; ITC at 25 °C, wild-type): –2.1 ± 0.1 kcal/mol
Kd (human OMPDC [4]; [7]): 2.6 ± 1.2 µM
Kd (human OMPDC [4]; [8]): 6.7 ± 0.8 µM
Kd (human OMPDC [4]; ITC, wild-type, second of two dissociation constants, read-out: Dissociation constant KD2): 6.73 µM
Structure (SMILES): O=c1ccn([C@@H]2O[C@H](COP(=O)(O)O)[C@@H](O)[C@H]2O)c(=O)[nH]1 [UMP, uridine 5′-monophosphate]

ΔH (first binding phase, K D1) (human OMPDC [4]; ITC at 25 °C, wild-type): –1.86 ± 0.10 kcal/mol
ΔH (second binding phase, K D2) (human OMPDC [4]; ITC at 25 °C, wild-type): –5.57 ± 0.07 kcal/mol
Kd (human OMPDC [4]; [7]): 0.21 ± 0.03 µM
Kd (human OMPDC [4]; [8]): 0.18 ± 0.02 µM
Kd (human OMPDC [4]; ITC, wild-type, first of two dissociation constants, read-out: Dissociation constant KD1): 0.213 µM
Kd (human OMPDC [4]; ITC, wild-type, second of two dissociation constants, read-out: K D2): 0.182 ± 0.018 µM
Structure (SMILES): O=c1[nH]c(=O)c2ncn([C@@H]3O[C@H](COP(=O)(O)O)[C@@H](O)[C@H]3O)c2[nH]1 [XMP, xanthosine-5′-monophosphate]

Kd (human OMPDC [4]; [6]): 119 µM
n (stoichiometry) (human OMPDC [4]; ITC at 25 °C, wild-type): 0.64 ± 0.03
ΔG (human OMPDC [4]; ITC at 25 °C, wild-type): –5.37 ± 0.09 kcal/mol
ΔH (human OMPDC [4]; ITC at 25 °C, wild-type): –4.74 ± 0.29 kcal/mol
–TΔS (human OMPDC [4]; ITC at 25 °C, wild-type): –0.63 ± 0.88 kcal/mol
Kd (human OMPDC [4]; ITC at 25 °C, wild-type, single dissociation constant, read-out: Dissociation constant (KD)): 118 µM
Structure (SMILES): Cc1cn([C@H]2C[C@H](O)[C@@H](COP(=O)(O)O)O2)c(=O)[nH]c1=O [dTMP, thymidine-5′-monophosphate]
Kd (OMPDC Thr321Asn [5]; ITC): 0.431 ± 0.044 µM
Kd (OMPDC Thr321Asn [5]; ITC at 25 °C): 0.43 ± 0.04 µM
n (stoichiometry) (OMPDC Thr321Asn [5]; ITC at 25 °C): 0.64 ± 0.02
ΔG (OMPDC Thr321Asn [5]; ITC at 25 °C): –8.69 ± 0.08 kcal/mol
ΔH (OMPDC Thr321Asn [5]; ITC at 25 °C): –14.3 ± 0.1 kcal/mol
–TΔS (OMPDC Thr321Asn [5]; ITC at 25 °C): 5.60 ± 0.06 kcal/mol

Continued, molecule first:

Structure (SMILES): O=C(O)c1cc(=O)[nH]c(=O)n1[C@H]1C[C@H](O)[C@@H](COP(=O)(O)O)O1 [2′-deoxy OMP]
ligand bound in crystal structure (human OMPDC [1]): does not bind
enzymatic turnover (human OMPDC [2]): no binding or turnover was detected
enzymatic activity (OMPDC Thr321Asn [3]): too low to be reliably measured

Structure (SMILES): O=c1ccn([C@H]2C[C@H](O)[C@@H](COP(=O)(O)O)O2)c(=O)[nH]1 [2′-deoxy UMP, 2′-deoxy uridine 5′-monophosphate]
binding detected by thermodynamic ITC (human OMPDC [4]; wild-type): no binding
binding detected by thermodynamic ITC (human OMPDC [4]; wild-type, listed as deoxy UMP): No binding could be detected

Structure (SMILES): Cc1c(C(=O)O)n(C2OC(COP(=O)(O)O)C(O)C2O)c(=O)[nH]c1=O (centres unmarked) [5-MeOMP, 5-methyl OMP]
enzymatic turnover (human OMPDC [2]): unable to detect enzymatic turnover
Kd (human OMPDC [4]; [6]): 0.404 µM and 0.4 µM
n (stoichiometry) (human OMPDC [4]; ITC at 25 °C, wild-type): 1.54 ± 0.01
ΔG (human OMPDC [4]; ITC at 25 °C, wild-type): –8.78 ± 0.19 kcal/mol
ΔH (human OMPDC [4]; ITC at 25 °C, wild-type): –1.20 ± 0.03 kcal/mol
–TΔS (human OMPDC [4]; ITC at 25 °C, wild-type): –7.58 ± 0.26 kcal/mol

Structure (SMILES): Nc1ccn([C@@H]2O[C@H](COP(=O)(O)O)[C@@H](O)[C@H]2O)c(=O)n1 [CMP, cytidine-5′-monophosphate]
ΔH (first binding phase, K D1) (human OMPDC [4]; ITC at 25 °C, wild-type): –2.30 ± 0.08 kcal/mol
ΔH (second binding phase, K D2) (human OMPDC [4]; ITC at 25 °C, wild-type): –7.08 ± 0.56 kcal/mol
Kd (human OMPDC [4]; [7]): 4.73 ± 1.09 µM
Kd (human OMPDC [4]; [8]): 8.33 ± 1.06 µM
